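These data come from cells grown in 96-well plates and exposed to compound for 48 hours at five concentrations. TGI denotes the concentration required for complete inhibition of growth.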
How the values were obtained:
Test in all cases: NCI tumour cell line growth inhibition, 48 h
RXF 393 renal = system: RXF 393 renal
A549 NSCLC = system: A549 NSCLC
786-0 renal = system: 786-0 renal
MDA-MB-435 = system: MDA-MB-435
MDA-MB-231 breast = system: MDA-MB-231 breast
SR leukemia = system: SR leukemia
NCI/ADR-RES ovarian = system: NCI/ADR-RES ovarian
LOX IMVI melanoma = system: LOX IMVI melanoma
COLO 205 colon = system: COLO 205 colon
SF-539 CNS = system: SF-539 CNS
K-562 leukemia = system: K-562 leukemia
UACC-62 melanoma = system: UACC-62 melanoma
RPMI-8226 leukemia = system: RPMI-8226 leukemia
OVCAR-3 ovarian = system: OVCAR-3 ovarian
OVCAR-5 ovarian = system: OVCAR-5 ovarian
HL-60(TB) leukemia = system: HL-60(TB) leukemia
SNB-19 CNS = system: SNB-19 CNS
NCI-H522 lung = system: NCI-H522 lung

Work on `N#Cc1c(N)c(C#N)c2c(c1-c1ccc(Cl)cc1)COc1ccccc1-2` yielded a TGI (RXF 393 renal) of 30.4 µM, a TGI (A549 NSCLC) of 33.2 µM and a TGI (786-0 renal) of 15.1 µM. The TGI (MDA-MB-435) was 99.4 µM, the TGI (MDA-MB-231 breast) was 92.3 µM and the TGI (SR leukemia) was 26.3 µM. The TGI (NCI/ADR-RES ovarian) was 68.5 µM, the TGI (LOX IMVI melanoma) was over 100 µM and the TGI (COLO 205 colon) was over 100 µM. For the same molecule, the TGI (SF-539 CNS) was 49.1 µM, the TGI (K-562 leukemia) was 35.3 µM and the TGI (UACC-62 melanoma) was over 100 µM. It also gave a TGI (RPMI-8226 leukemia) of 17.1 µM, a TGI (OVCAR-3 ovarian) of 30.6 µM and a TGI (OVCAR-5 ovarian) of over 100 µM. The TGI (HL-60(TB) leukemia) was 68.8 µM and the TGI (SNB-19 CNS) was 30.6 µM.
Molecule `COc1ccc(/C=C2/CCS(=O)(=O)c3ccc(C)cc3C2=O)cc1OC` has a TGI (RXF 393 renal) of 29.6 µM, a TGI (A549 NSCLC) of over 100 µM and a TGI (786-0 renal) of 27.7 µM. It also gave a TGI (MDA-MB-435) of 71.6 µM, a TGI (MDA-MB-231 breast) of 39.1 µM and a TGI (SR leukemia) of 58.1 µM. It also gave a TGI (NCI/ADR-RES ovarian) of 46.5 µM, a TGI (LOX IMVI melanoma) of 20.4 µM and a TGI (COLO 205 colon) of 28.4 µM. It also gave a TGI (SF-539 CNS) of over 100 µM, a TGI (K-562 leukemia) of over 100 µM and a TGI (UACC-62 melanoma) of 22.7 µM. It also gave a TGI (RPMI-8226 leukemia) of 37.6 µM, a TGI (OVCAR-3 ovarian) of over 100 µM and a TGI (OVCAR-5 ovarian) of over 100 µM. For the same molecule, the TGI (HL-60(TB) leukemia) was 51.5 µM and the TGI (SNB-19 CNS) was 33.3 µM.
`C=CCn1cnc2c(=O)[nH]c(Nc3ccccc3)nc21` was tested, and the TGI (A549 NSCLC) was over 100 µM, the TGI (786-0 renal) was over 100 µM and the TGI (MDA-MB-435) was over 100 µM. For the same molecule, the TGI (MDA-MB-231 breast) was over 100 µM, the TGI (NCI-H522 lung) was over 100 µM and the TGI (SR leukemia) was over 100 µM. It also gave a TGI (NCI/ADR-RES ovarian) of over 100 µM, a TGI (LOX IMVI melanoma) of over 100 µM and a TGI (COLO 205 colon) of over 100 µM. The TGI (SF-539 CNS) was over 100 µM, the TGI (UACC-62 melanoma) was over 100 µM and the TGI (RPMI-8226 leukemia) was over 100 µM. The TGI (OVCAR-3 ovarian) was over 100 µM, the TGI (OVCAR-5 ovarian) was over 100 µM and the TGI (HL-60(TB) leukemia) was over 100 µM. For the same molecule, the TGI (SNB-19 CNS) was over 100 µM.
With `CN(C)CCCNC(=O)c1cc(NC(=O)c2cc(NC(=O)[C@@H]3C[C@H]3C(=O)Nc3cc(C(=O)Nc4cc(C(=O)NCCCN(C)C)n(C)c4)n(C)c3)cn2C)cn1C` the TGI (A549 NSCLC) was over 100 µM, the TGI (786-0 renal) was over 100 µM and the TGI (MDA-MB-435) was over 100 µM. For the same molecule, the TGI (MDA-MB-231 breast) was over 100 µM, the TGI (NCI-H522 lung) was over 100 µM and the TGI (SR leukemia) was over 100 µM. The TGI (NCI/ADR-RES ovarian) was over 100 µM, the TGI (LOX IMVI melanoma) was over 100 µM and the TGI (COLO 205 colon) was over 100 µM. It also gave a TGI (SF-539 CNS) of over 100 µM, a TGI (K-562 leukemia) of over 100 µM and a TGI (RPMI-8226 leukemia) of over 100 µM. For the same molecule, the TGI (OVCAR-5 ovarian) was over 100 µM, the TGI (HL-60(TB) leukemia) was over 100 µM and the TGI (SNB-19 CNS) was over 100 µM.
Work on `CCOC(=O)N1[C@@H]2CCC[C@@H]2C(=O)[C@@H]2CCC[C@@H]21` yielded a TGI (RXF 393 renal) of over 100 µM, a TGI (A549 NSCLC) of over 100 µM and a TGI (786-0 renal) of over 100 µM. The TGI (MDA-MB-435) was over 100 µM, the TGI (MDA-MB-231 breast) was over 100 µM and the TGI (SR leukemia) was over 100 µM. It also gave a TGI (NCI/ADR-RES ovarian) of over 100 µM, a TGI (LOX IMVI melanoma) of over 100 µM and a TGI (COLO 205 colon) of over 100 µM. The TGI (K-562 leukemia) was over 100 µM, the TGI (UACC-62 melanoma) was over 100 µM and the TGI (RPMI-8226 leukemia) was over 100 µM. For the same molecule, the TGI (OVCAR-3 ovarian) was over 100 µM, the TGI (OVCAR-5 ovarian) was over 100 µM and the TGI (HL-60(TB) leukemia) was over 100 µM. For the same molecule, the TGI (SNB-19 CNS) was over 100 µM.
For `CC(NC(NC(C)C12CC3CC(CC(C3)C1)C2)=C(C(Cl)=C(Cl)Cl)[N+](=O)[O-])C12CC3CC(CC(C3)C1)C2` (stereo not drawn), the TGI (RXF 393 renal) was 62.9 µM, the TGI (A549 NSCLC) was 25.7 µM and the TGI (786-0 renal) was over 100 µM. The TGI (MDA-MB-435) was over 100 µM, the TGI (MDA-MB-231 breast) was 16 µM and the TGI (NCI-H522 lung) was 24.3 µM. For the same molecule, the TGI (SR leukemia) was over 100 µM, the TGI (NCI/ADR-RES ovarian) was over 100 µM and the TGI (LOX IMVI melanoma) was 21.5 µM. For the same molecule, the TGI (COLO 205 colon) was 22.6 µM, the TGI (SF-539 CNS) was 69 µM and the TGI (K-562 leukemia) was over 40 µM. For the same molecule, the TGI (UACC-62 melanoma) was over 100 µM, the TGI (RPMI-8226 leukemia) was over 69.5 µM and the TGI (OVCAR-3 ovarian) was 64.8 µM. For the same molecule, the TGI (OVCAR-5 ovarian) was over 100 µM and the TGI (SNB-19 CNS) was over 100 µM.
`Cc1cc2c(cc1C)C(=O)/C(=N/Nc1ccc(F)cc1)CCO2` gave a TGI (A549 NSCLC) of over 100 µM, a TGI (786-0 renal) of over 100 µM and a TGI (MDA-MB-435) of over 100 µM. For the same molecule, the TGI (MDA-MB-231 breast) was over 100 µM, the TGI (NCI-H522 lung) was over 100 µM and the TGI (SR leukemia) was over 100 µM. The TGI (NCI/ADR-RES ovarian) was over 100 µM, the TGI (LOX IMVI melanoma) was over 100 µM and the TGI (COLO 205 colon) was over 100 µM. For the same molecule, the TGI (SF-539 CNS) was over 100 µM, the TGI (K-562 leukemia) was over 100 µM and the TGI (UACC-62 melanoma) was over 100 µM. For the same molecule, the TGI (RPMI-8226 leukemia) was over 100 µM, the TGI (OVCAR-3 ovarian) was over 100 µM and the TGI (OVCAR-5 ovarian) was over 100 µM. For the same molecule, the TGI (HL-60(TB) leukemia) was over 100 µM and the TGI (SNB-19 CNS) was over 100 µM.
`Oc1cc(CN2COc3ccccc32)c(O)cc1CNC1CCCCC1` gave a TGI (RXF 393 renal) of 71.8 µM, a TGI (A549 NSCLC) of over 100 µM and a TGI (786-0 renal) of 34 µM. It also gave a TGI (MDA-MB-435) of 60.1 µM, a TGI (MDA-MB-231 breast) of 41.8 µM and a TGI (NCI-H522 lung) of 27.8 µM. The TGI (SR leukemia) was 49.7 µM, the TGI (NCI/ADR-RES ovarian) was over 100 µM and the TGI (LOX IMVI melanoma) was 31.6 µM. The TGI (COLO 205 colon) was 31.2 µM, the TGI (SF-539 CNS) was 34.6 µM and the TGI (K-562 leukemia) was 52.9 µM. It also gave a TGI (UACC-62 melanoma) of 55.1 µM, a TGI (RPMI-8226 leukemia) of 64.5 µM and a TGI (OVCAR-3 ovarian) of over 100 µM. It also gave a TGI (OVCAR-5 ovarian) of over 100 µM and a TGI (SNB-19 CNS) of over 100 µM.
In the case of `C=C1CC(CN2CCC(=O)NC2=O)(c2ccccc2)OC1=O` (stereo not drawn), the TGI (A549 NSCLC) is reported as 33 µM, the TGI (786-0 renal) is reported as 15.6 µM and the TGI (MDA-MB-435) is reported as 23.6 µM. The TGI (MDA-MB-231 breast) was 32.1 µM, the TGI (NCI-H522 lung) was 2.17 µM and the TGI (SR leukemia) was 5.26 µM. For the same molecule, the TGI (NCI/ADR-RES ovarian) was 32.8 µM, the TGI (LOX IMVI melanoma) was 16.7 µM and the TGI (COLO 205 colon) was 6.25 µM. For the same molecule, the TGI (SF-539 CNS) was 28.4 µM, the TGI (K-562 leukemia) was 10.9 µM and the TGI (UACC-62 melanoma) was 21.3 µM. It also gave a TGI (RPMI-8226 leukemia) of 7.95 µM, a TGI (OVCAR-3 ovarian) of 31.7 µM and a TGI (OVCAR-5 ovarian) of 29 µM. It also gave a TGI (HL-60(TB) leukemia) of 4.04 µM and a TGI (SNB-19 CNS) of over 56.2 µM.
With `COc1ncnc2c1cnn2Cc1cn(CCCCO)nn1` the TGI (RXF 393 renal) was over 100 µM, the TGI (A549 NSCLC) was over 100 µM and the TGI (786-0 renal) was over 100 µM. It also gave a TGI (MDA-MB-435) of over 100 µM, a TGI (MDA-MB-231 breast) of over 100 µM and a TGI (NCI-H522 lung) of over 100 µM. The TGI (SR leukemia) was over 100 µM, the TGI (NCI/ADR-RES ovarian) was over 100 µM and the TGI (LOX IMVI melanoma) was over 100 µM. The TGI (COLO 205 colon) was over 100 µM, the TGI (SF-539 CNS) was over 100 µM and the TGI (K-562 leukemia) was over 100 µM. It also gave a TGI (UACC-62 melanoma) of over 100 µM, a TGI (RPMI-8226 leukemia) of over 100 µM and a TGI (OVCAR-3 ovarian) of over 100 µM. It also gave a TGI (OVCAR-5 ovarian) of over 100 µM and a TGI (SNB-19 CNS) of over 100 µM.
Molecule `Cc1cc(C)n(C(=O)CSc2nnc(SCC(=O)n3nc(C)cc3C)s2)n1` has a TGI (RXF 393 renal) of over 100 µM, a TGI (A549 NSCLC) of over 100 µM and a TGI (786-0 renal) of over 100 µM. It also gave a TGI (MDA-MB-435) of over 100 µM, a TGI (MDA-MB-231 breast) of over 100 µM and a TGI (SR leukemia) of over 100 µM. For the same molecule, the TGI (NCI/ADR-RES ovarian) was over 100 µM, the TGI (LOX IMVI melanoma) was over 100 µM and the TGI (COLO 205 colon) was over 100 µM. The TGI (SF-539 CNS) was over 100 µM, the TGI (K-562 leukemia) was over 100 µM and the TGI (UACC-62 melanoma) was over 100 µM. For the same molecule, the TGI (RPMI-8226 leukemia) was over 100 µM, the TGI (OVCAR-3 ovarian) was over 100 µM and the TGI (OVCAR-5 ovarian) was over 100 µM. It also gave a TGI (HL-60(TB) leukemia) of over 100 µM and a TGI (SNB-19 CNS) of over 100 µM.

Reference: PubChem BioAssay (NCI)
